Where two headings read alike, the source gives them in different places.
Columns and labels:
histamine = settings: in vivo; cited from earlier work
motorability = assay: Effect on motorability (rotating bar); format: in vivo, mouse (dd-strain); settings: 25 mg/kg oral; for Number of Animals that fell: 10 examined
Method: 25 mg/kg of MR were administered to 10 mice per one group. The mice were put on a wooden bar of 2 cm diameter which rotated at 10 r.p.m., and the number of mice which fell down from the bar was counted.

rats [1] = test system: rats
Method: The rate were bred in individual cages under the following conditions: temperature, 23°±2° C.; relative humidity, 55±5%; free taking of solid food (CE-2, CLEA Japan, Inc.) and tap water.
Volume of the medicine solution for one administration was dicided to be 1 ml per 100 g of weight, and the dose was administered once a day, 6 times a week over 5 weeks. The control group received the same volume of 0.2% carboxymethyl cellulose solution.
After the final administration followed by 24 hours fast, the following analyses were made: Glucose (by o-toluidine-boric acid method); Total Protein (by biurett method); Blood Uria Nitrogen (diacetyl monoxime method); GOT and GPT Activities (Reitman-Frankel method); Alkaline Phosphatase Activity (Kind-King method); and Sodium and Potassium Content (flame-photometer).

Solubility = format: physicochemical
rats [2] = test system: rats; remark: listed apart in the source
From the text: Rats were sacrificed under anesthesia with ether. After observation of gross appearance of all the organs, extraction and weighing were made on spleen, lung, liver, adrenal, heart, thymus, kidney, testicles, hypophysis and thyroid. In addition to the above organs, femoral bone marrow, lymph node, stomach, intestine, pancreas, urinary bladder, prostate and central nervous system were removed and fixed in 10% formaline solution.

central nervous system = settings: in vivo; cited from earlier work
[3] = Effect on body temperature; format: in vivo, mouse (dd-strain); settings: 25 mg/kg oral
rat = settings: oral
[4] = 20 mg/kg oral
Method: Blood was drawn from branchial vein of dogs, vein of ear of rabbits and carotic artery of rats after slaughter. Urine was collected with urine bladder catheter for rabbits and metabolic cages for rats. Gathering bile was performed with biliary duct cannulation without anesthesia.

[5] = in vivo; cited from earlier work
rats [6] = test system: rats; remark: listed apart in the source
Method: Urinanalysis was conducted on the last day of the repeated administration as to pH, protein content, glucose content, ketone body content and occult blood by testing paper methods. (Labstix, Miles-Sankyo Co., Ltd.)

[7] = test system: noradrenaline in heart and adrenals; settings: in vivo; cited from earlier work
[8] = rat, in vivo, po

Method for hexobarbital hypnosis: Period of induced sleeping was measured with righting reflex as a parameter.

Compound: COC(=O)[C@H]1[C@H]2C[C@@H]3c4[nH]c5cc(OC)ccc5c4CCN3C[C@H]2C[C@@H](O)[C@@H]1OC [MR, methylreserpate]
- histamine (histamine): increse of histamine
- Number of Animals that fell (motorability; 1 hour after): 0 Number of Animals
- Number of Animals that fell (motorability; 2 hours after): 2 Number of Animals
- effect on motorability (motorability; 3 hours after): slight suppression of motorability
- Number of Animals that fell (motorability; 3 hours after): 4 Number of Animals
- ALP (rats [1]; 25.0 mg/kg, 30 days): 17.0±0.93 K.A.U.
- BUN (rats [1]; 25.0 mg/kg, 30 days): 15.7 ± 0.77 mg/dL
- GOT (rats [1]; 25.0 mg/kg, 30 days): 92.2±8.74 K.U.
- Glucose (rats [1]; 25.0 mg/kg, 30 days): 155.4 ± 6.06 mg/dL
- Total Protein (rats [1]; 25.0 mg/kg, 30 days): 6.65 ± 0.08 g/dL
- ALP (rats [1]; 50.0 mg/kg, 30 days): 18.7±1.39 K.A.U.
- Total Protein (rats [1]; 50.0 mg/kg, 30 days): 6.76 ± 0.18 g/dL
- BUN (rats [1]; 50.0 mg/kg, 30 days, P<0.05): 17.2 ± 0.56 mg/dL
- GOT (rats [1]; 50.0 mg/kg, 30 days, P<0.05): 117.1±10.48 K.U.
- Glucose (rats [1]; 50.0 mg/kg, 30 days, P<0.05): 113.7 ± 5.25 mg/dL
- ALP (rats [1]; 100.0 mg/kg, 30 days): 22.7±2.91 K.A.U.
- Total Protein (rats [1]; 100.0 mg/kg, 30 days): 6.57 ± 0.28 g/dL
- BUN (rats [1]; 100.0 mg/kg, 30 days, P<0.05): 17.5 ± 1.01 mg/dL
- GOT (rats [1]; 100.0 mg/kg, 30 days, P<0.05): 114.9±7.02 K.U.
- Glucose (rats [1]; 100.0 mg/kg, 30 days, P<0.05): 100.5 ± 8.60 mg/dL
- serum glucose (rats [1]; 50 and 100 mg/kg groups): decrease of glucose value
- other serum biochemistry (rats [1]; all determinations other than glucose): all within the scope of normal values
- ALP (rats [1]; rat, in vivo): 18.8±10.82
- BUN (rats [1]; rat, in vivo): 14.6±0.35
- GOT (rats [1]; rat, in vivo): 80.4±7.55
- Glucose (rats [1]; rat, in vivo): 149.3±3.36
- Total Protein (rats [1]; rat, in vivo): 7.06±0.09
- solubility in chloroform (Solubility): easily soluble
- solubility in ethanol (Solubility): easily soluble
- solubility in methanol (Solubility): easily soluble
- solubility in water (Solubility): hardly soluble
- Absolute weight Brain (rats [2]; 25.0 mg/kg): 2.26 ± 0.04 g
- Absolute weight Hypophysis (rats [2]; 25.0 mg/kg): 11.98 ± 0.44 mg
- Absolute weight Kidney (rats [2]; 25.0 mg/kg): 1.20 ± 0.04 g
- Absolute weight Liver (rats [2]; 25.0 mg/kg): 10.00 ± 0.47 g
- Absolute weight Lung (rats [2]; 25.0 mg/kg): 2.35 ± 0.05 g
- Absolute weight Spleen (rats [2]; 25.0 mg/kg): 0.71 ± 0.03 g
- Absolute weight Thymus (rats [2]; 25.0 mg/kg): 0.54 ± 0.02 g
- Absolute weight Thyroid (rats [2]; 25.0 mg/kg): 10.07 ± 0.55 mg
- Absolute weight Salivary (rats [2]; 25.0 mg/kg, P<0.01): 0.26 ± 0.01 g
- Absolute weight Brain (rats [2]; 50.0 mg/kg): 2.26 ± 0.03 g
- Absolute weight Hypophysis (rats [2]; 50.0 mg/kg): 11.93 ± 0.48 mg
- Absolute weight Kidney (rats [2]; 50.0 mg/kg): 1.19 ± 0.03 g
- Absolute weight Liver (rats [2]; 50.0 mg/kg): 10.16 ± 0.33 g
- Absolute weight Lung (rats [2]; 50.0 mg/kg): 2.26 ± 0.10 g
- Absolute weight Spleen (rats [2]; 50.0 mg/kg): 0.73 ± 0.03 g
- Absolute weight Thymus (rats [2]; 50.0 mg/kg): 0.58 ± 0.05 g
- Absolute weight Thyroid (rats [2]; 50.0 mg/kg): 8.55 ± 0.50 mg
- Absolute weight Salivary (rats [2]; 50.0 mg/kg, P<0.05): 0.26 ± 0.01 g
- absolute weight of other organs (rats [2]; 100 mg/kg): decrease in weight of the other organs
- Absolute weight Hypophysis (rats [2]; 100.0 mg/kg): 10.46 ± 0.17 mg
- Absolute weight Spleen (rats [2]; 100.0 mg/kg): 0.56 ± 0.03 g
- Absolute weight Thyroid (rats [2]; 100.0 mg/kg): 7.86 ± 0.38 mg
- Absolute weight Kidney (rats [2]; 100.0 mg/kg, P<0.01): 0.89 ± 0.03 g
- Absolute weight Salivary (rats [2]; 100.0 mg/kg, P<0.01): 0.21 ± 0.01 g
- Absolute weight Thymus (rats [2]; 100.0 mg/kg, P<0.01): 0.39 ± 0.03 g
- Absolute weight Brain (rats [2]; 100.0 mg/kg, P<0.05): 2.17 ± 0.04 g
- Absolute weight Liver (rats [2]; 100.0 mg/kg, P<0.05): 7.55 ± 0.32 g
- Absolute weight Lung (rats [2]; 100.0 mg/kg, P<0.05): 2.10 ± 0.06 g
- absolute adrenal weight (rats [2]; 25 and 50 mg/kg groups): weight increase of adrenal
- Absolute weight Brain (rats [2]; rat, in vivo): 2.28±0.03
- Absolute weight Hypophysis (rats [2]; rat, in vivo): 10.60±0.41
- Absolute weight Kidney (rats [2]; rat, in vivo): 1.17±0.05
- Absolute weight Liver (rats [2]; rat, in vivo): 10.18±0.50
- Absolute weight Lung (rats [2]; rat, in vivo): 1.32±0.12
- Absolute weight Salivary (rats [2]; rat, in vivo): 0.27±0.01
- Absolute weight Spleen (rats [2]; rat, in vivo): 0.69±0.03
- Absolute weight Thymus (rats [2]; rat, in vivo): 0.63±0.04
- Absolute weight Thyroid (rats [2]; rat, in vivo): 8.59±0.50
- gross appearance of organs (rats [2]; rat, in vivo): no noteworthy change
- inhibitory action of central nervous system (central nervous system): less than that of RSP
- body temperature (rectal) ([3]; 1 hour after): 36.6±0.2 °C
- body temperature (rectal) ([3]; 2 hours after): 36.2± 0.2 °C
- body temperature (rectal) ([3]; 3 hours after): 35.6±0.1 °C
- effect on body temperature ([3]; 3 hours after): a slight decrease in the temperature
- LD50 as multiple of clinical dosage of RCN (rat): about 24,000 times
- Area under the Curve of MR Content in Serum [4]: 63.6
- antihypertensive effect [5]: no antihypertensive effect
- urine Glucose - (rats [6]; 25.0 mg/kg): 10 Number of Rats
- urine Ketone Body + (rats [6]; 25.0 mg/kg): 0 Number of Rats
- urine Ketone Body - (rats [6]; 25.0 mg/kg): 10 Number of Rats
- urine Occult Blood - (rats [6]; 25.0 mg/kg): 10 Number of Rats
- urine Protein + (rats [6]; 25.0 mg/kg): 6 Number of Rats
- urine Protein ++ (rats [6]; 25.0 mg/kg): 4 Number of Rats
- urine Protein +++ (rats [6]; 25.0 mg/kg): 0 Number of Rats
- urine Protein - (rats [6]; 25.0 mg/kg): 0 Number of Rats
- urine pH 6 (rats [6]; 25.0 mg/kg): 2 Number of Rats
- urine pH 7 (rats [6]; 25.0 mg/kg): 7 Number of Rats
- urine pH 8 (rats [6]; 25.0 mg/kg): 1 Number of Rats
- urine Glucose - (rats [6]; 50.0 mg/kg): 10 Number of Rats
- urine Ketone Body + (rats [6]; 50.0 mg/kg): 1 Number of Rats
- urine Ketone Body - (rats [6]; 50.0 mg/kg): 9 Number of Rats
- urine Occult Blood - (rats [6]; 50.0 mg/kg): 10 Number of Rats
- urine Protein + (rats [6]; 50.0 mg/kg): 6 Number of Rats
- urine Protein ++ (rats [6]; 50.0 mg/kg): 4 Number of Rats
- urine Protein +++ (rats [6]; 50.0 mg/kg): 0 Number of Rats
- urine Protein - (rats [6]; 50.0 mg/kg): 0 Number of Rats
- urine pH 6 (rats [6]; 50.0 mg/kg): 1 Number of Rats
- urine pH 7 (rats [6]; 50.0 mg/kg): 7 Number of Rats
- urine pH 8 (rats [6]; 50.0 mg/kg): 2 Number of Rats
- urine Glucose - (rats [6]; 100.0 mg/kg): 10 Number of Rats
- urine Ketone Body + (rats [6]; 100.0 mg/kg): 1 Number of Rats
- urine Ketone Body - (rats [6]; 100.0 mg/kg): 9 Number of Rats
- urine Occult Blood - (rats [6]; 100.0 mg/kg): 10 Number of Rats
- urine Protein + (rats [6]; 100.0 mg/kg): 3 Number of Rats
- urine Protein ++ (rats [6]; 100.0 mg/kg): 3 Number of Rats
- urine Protein +++ (rats [6]; 100.0 mg/kg): 3 Number of Rats
- urine Protein - (rats [6]; 100.0 mg/kg): 1 Number of Rats
- urine pH 6 (rats [6]; 100.0 mg/kg): 2 Number of Rats
- urine pH 7 (rats [6]; 100.0 mg/kg): 7 Number of Rats
- urine pH 8 (rats [6]; 100.0 mg/kg): 1 Number of Rats
- increase in urine volume, interpretation (rats [6]; higher doses): seems to be a diuretic effect
- urinanalysis overall (rats [6]; last day of repeated administration): do not indicate abnormal feature any worth special mention
- urine Glucose - (rats [6]; rat, in vivo): 10 Number of Rats
- urine Ketone Body + (rats [6]; rat, in vivo): 0 Number of Rats
- urine Ketone Body - (rats [6]; rat, in vivo): 10 Number of Rats
- urine Occult Blood - (rats [6]; rat, in vivo): 10 Number of Rats
- urine Protein + (rats [6]; rat, in vivo): 5 Number of Rats
- urine Protein ++ (rats [6]; rat, in vivo): 3 Number of Rats
- urine Protein +++ (rats [6]; rat, in vivo): 2 Number of Rats
- urine Protein - (rats [6]; rat, in vivo): 0 Number of Rats
- urine pH 6 (rats [6]; rat, in vivo, pH 6): 3 Number of Rats
- urine pH 7 (rats [6]; rat, in vivo, pH 7): 4 Number of Rats
- urine pH 8 (rats [6]; rat, in vivo, pH 8): 3 Number of Rats
- noradrenaline in heart and adrenals [7]: slight decrease of noradrenaline in heart and adrenals
- metabolism [8]: hardly metabolized
- Hypnotic Time (hexobarbital hypnosis; 25 mg/kg oral): 159 ± 7 s
- Sleeping Time (hexobarbital hypnosis; 25 mg/kg oral): 34.2 ± 6.7 min
- Hypnotic Time (hexobarbital hypnosis; mouse, in vivo): 144 ± 7 s
- Sleeping Time (hexobarbital hypnosis; mouse, in vivo): 32.9 ± 4.4 min
- influence on time to induce sleep and sleeping period (hexobarbital hypnosis; mouse, in vivo): did not influence
